Results from the supplement of paper PMC10307832.

What was measured:
Assay in all cases: relative viability (nuclei count vs DMSO), 5 days (fraction); higher = more cells survive
Mirin + Vorinostat = compound: N=C1NC(=O)/C(=C/c2ccc(O)cc2)S1 [Mirin] + O=C(CCCCCCC(=O)Nc1ccccc1)NO [Vorinostat] (partner 1 µM)
Summary of the method: (§1)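 Relative viability divides the nuclei count in treated wells by that in vehicle wells. Lung cancer cell lines were seeded in 1536-well plates, dosed by pin tool the next day, and fixed and stained after 5 days in one step with final 0.05% Triton X-100, 1% formaldehyde and 1 ug/ml Hoechst. Dosing was a single drug or a fixed anchor-drug dose plus five library-drug doses (not always all listed) in √10 steps, and values are medians of duplicate plates imaged at 4×.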

[1] = compound: CCC1=CN=CN=C1N2CCN(CC2)CC3=NC4=C(N3)C=C(C=C4)C(F)(F)F + COc1cc2c(Oc3ccc(NC(=O)C4(C(=O)Nc5ccc(F)cc5)CC4)cc3F)ccnc2cc1OCCCN1CCOCC1 [Foretinib] (partner 0.25 µM)
Summary of the method: as §1

[2] = compound: CCC1=CN=CN=C1N2CCN(CC2)CC3=NC4=C(N3)C=C(C=C4)C(F)(F)F + CC(C)C[C@H](NC(=O)[C@H](Cc1ccccc1)NC(=O)c1cnccn1)B(O)O [Bortezomib] (partner 0.002 µM)
Summary of the method: as §1

[3] = compound: CCn1c(-c2nonc2N)nc2cnc(Oc3cccc(NC(=O)c4ccc(OCCN5CCOCC5)cc4)c3)cc21 + Cc1cc(Nc2cc(N3CCN(C)CC3)nc(Sc3ccc(NC(=O)C4CC4)cc3)n2)n[nH]1 [Tozasertib] (partner 0.1 µM)
Summary of the method: as §1

Cell Line | relative viability (Mirin + Vorinostat; first compound 0.25 µM) | relative viability (Mirin + Vorinostat; first compound 0.7906 µM) | relative viability (Mirin + Vorinostat; first compound 2.5 µM) | relative viability (Mirin + Vorinostat; first compound 7.906 µM) | relative viability (Mirin + Vorinostat; first compound 25 µM) | relative viability ([1]; first compound 0.04 µM) | relative viability ([1]; first compound 0.1265 µM) | relative viability ([1]; first compound 0.4 µM) | relative viability ([1]; first compound 1.265 µM) | relative viability ([1]; first compound 4 µM) | relative viability ([2]; first compound 0.04 µM) | relative viability ([2]; first compound 0.1265 µM) | relative viability ([2]; first compound 0.4 µM) | relative viability ([2]; first compound 1.265 µM) | relative viability ([2]; first compound 4 µM) | relative viability ([3]; first compound 0.04 µM) | relative viability ([3]; first compound 1.265 µM) | relative viability ([3]; first compound 4 µM) | relative viability ([3]; first compound 0.1265 µM) | relative viability ([3]; first compound 0.4 µM)
HCC-78 | 0.41 | 0.473 | 0.472 | 0.399 | 0.471 | 0.585 | 0.631 | 0.491 | 0.51 | 0.539 | 0.538 | 0.592 | 0.59 | 0.528 | 0.517 | 0.589 | 0.532 | 0.519 | – | –
HCC-366 | 0.391 | 0.203 | 0.404 | 0.244 | 0.413 | 0.856 | 1.01 | 0.915 | 0.877 | 0.851 | 1 | 1.06 | 1.05 | – | 1.01 | 0.134 | 0.0938 | 0.0791 | 0.105 | 0.0696
HCC-827 | 0.184 | 0.863 | 0.937 | 0.828 | 0.987 | 0.962 | 0.945 | 1.02 | – | 0.826 | 1.01 | 0.997 | 1.02 | 0.95 | 0.953 | 0.453 | 0.383 | 0.346 | 0.434 | 0.387
HOP-62 | 0.669 | 0.527 | 0.679 | 0.411 | 0.603 | 1.14 | 1.12 | 1.07 | 1.25 | 0.942 | 0.869 | 0.819 | 0.648 | 0.677 | 0.947 | 0.393 | 0.283 | 0.234 | 0.445 | 0.344
IA-LM | 0.975 | 1.01 | 1.01 | – | 1.17 | 1.11 | 0.943 | 1.02 | 1.1 | 1.22 | 0.786 | 0.911 | 0.761 | 0.752 | 0.702 | – | – | – | – | –
LC-2-ad | 0.641 | 0.7 | 0.713 | 0.624 | 0.679 | 0.927 | 0.88 | 0.922 | 0.803 | 0.857 | 0.993 | 0.959 | 0.969 | 0.963 | 0.952 | 0.517 | 0.294 | 0.328 | 0.365 | 0.418
LCLC-97TM1 | 0.887 | 0.204 | 0.743 | 0.697 | 0.679 | 0.897 | 0.898 | 0.895 | 0.838 | 0.888 | – | 0.516 | 0.598 | 0.668 | 0.942 | 0.201 | 0.249 | 0.222 | 0.271 | 0.192
LK-2 | 0.204 | 0.234 | 0.294 | 0.207 | 0.271 | 1.29 | 1.41 | 1.09 | 1.12 | 0.743 | – | – | – | – | – | 0.198 | 0.179 | 0.171 | 0.159 | 0.173
NCI-H358 | 0.698 | 0.729 | 0.698 | 0.737 | 0.453 | 0.746 | 0.626 | 0.686 | 0.509 | 0.651 | – | – | – | – | – | 0.0993 | 0.0599 | 0.0812 | 0.102 | 0.116
NCI-H522 | 1.04 | 1.1 | 0.89 | 0.692 | 0.695 | – | – | – | – | – | – | – | – | – | – | 0.474 | 0.509 | 0.482 | 0.478 | 0.544
NCI-H1299 | – | – | – | – | – | 1.1 | 1.02 | 1.12 | 1.11 | 1.08 | 1.06 | 0.998 | 1.01 | 0.983 | 1.01 | – | – | – | – | –
NCI-H1395 | 0.809 | – | 0.822 | 0.811 | 0.938 | 0.847 | 0.881 | 1.01 | 0.986 | 0.94 | – | – | – | – | – | 0.916 | 0.38 | 0.493 | 0.799 | 0.701
NCI-H1563 | – | – | – | – | – | 0.961 | 1.01 | 0.938 | 0.844 | 0.917 | 0.829 | 1 | 0.838 | 0.656 | 0.976 | – | – | – | – | –
NCI-H1623 | – | – | – | – | – | 0.835 | 0.819 | 0.767 | 0.749 | 0.794 | – | – | – | – | – | 0.473 | 0.346 | 0.457 | 0.396 | 0.369
NCI-H1648 | 0.421 | – | 0.601 | 0.424 | 0.299 | – | – | – | – | – | – | – | – | – | – | 0.415 | 0.713 | 0.547 | 0.833 | 0.88
NCI-H1703 | – | – | – | – | – | 0.344 | 0.366 | 0.369 | 0.381 | 0.372 | 0.305 | 0.26 | 0.248 | 0.446 | 0.307 | – | – | – | – | –
NCI-H1792 | – | – | – | – | – | – | – | – | – | – | 0.885 | 0.782 | 0.926 | 1.04 | 1 | – | – | – | – | –
NCI-H1793 | 0.907 | – | 0.672 | 0.949 | 0.832 | 0.7 | 0.771 | 0.568 | – | 0.669 | – | – | – | – | – | 0.332 | 0.307 | 0.293 | 0.473 | 0.341
NCI-H1944 | 0.511 | 0.494 | 0.649 | 0.449 | 0.511 | 1.1 | 0.844 | 0.809 | 0.648 | 0.694 | – | – | – | – | – | 0.248 | 0.228 | 0.213 | 0.279 | 0.273
NCI-H2170 | 0.621 | 0.828 | 0.906 | 0.665 | 0.859 | 1.01 | 0.975 | 0.94 | 0.867 | 1 | – | – | – | – | – | 0.743 | 0.553 | 0.515 | 0.651 | 0.786
NCI-H2342 | 0.852 | 0.817 | 0.845 | – | 0.757 | 1.16 | 0.95 | 0.945 | 0.528 | 0.607 | – | – | – | – | – | 0.599 | 0.437 | 0.425 | 0.561 | 0.463
SK-MES-1 | 1.12 | 1.46 | 1.18 | 1.12 | 1.24 | 0.917 | 0.925 | 0.909 | 0.829 | 0.882 | – | – | – | – | – | 0.811 | 0.228 | 0.21 | 0.657 | 0.518
SW 900 | 0.608 | 0.482 | 0.423 | 0.583 | 0.401 | 0.778 | 0.825 | 0.81 | 0.795 | 0.793 | – | – | – | – | – | 0.625 | 0.488 | 0.431 | 0.706 | 0.637
